SMILES strings stand for the structures.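 All cell lines were grown in 96-well plates and treated with compound for 48 hours. The concentration for 50% growth inhibition is given as GI50.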 Active and inactive are the calls of the source. No stated cut-off is given here; in the data, active = GI50 up to about 1.1 µM and inactive = higher.

Test systems include SK-OV-3; MOLT-4; SR; TK-10; LOX IMVI; OVCAR-4; RXF 393; MCF7; T47D; NCI-H460; EKVX; U-251; SK-MEL-5; MDA-MB-435; K562; SK-MEL-2; UACC-62; A498; HCT-116; HCC 2998.
Holding throughout (test): NCI-60 cell line screen, 48 h

For the compound `Cn1c(=O)c2c(ncn2CN2CCN(Cn3cnc4c3c(=O)n(C)c(=O)n4C)CC2)n(C)c1=O`, the GI50 in the assay on SK-OV-3 was > 100 µM (inactive); with MOLT-4, 17 µM (inactive); in the assay with SR it was 28.6 µM (inactive); in the assay with TK-10, 21.5 µM (inactive); with LOX IMVI, 24.2 µM (inactive); in the assay on OVCAR-4, > 100 µM (inactive). Moreover, the GI50 is 20.2 µM (inactive) with RXF 393; 16.9 µM (inactive) in the assay on MCF7; 30.5 µM (inactive) with T47D; 19.2 µM (inactive) with NCI-H460; 29.1 µM (inactive) with EKVX; > 100 µM (inactive) with U-251. Moreover, the GI50 with SK-MEL-5 was > 100 µM (inactive); in the assay with MDA-MB-435, 86.5 µM (inactive); with K562, 31.7 µM (inactive); in the assay on SK-MEL-2 it was > 100 µM (inactive); in the assay with UACC-62, 45.7 µM (inactive); in the assay with A498 it was > 100 µM (inactive). The GI50 in the assay on HCT-116 is 16.9 µM (inactive).

On to `CCCCCCCCCCCCCCCCCCNc1ccn(C2OC(COP(=O)(O)OCCCCCCCCCCCCCCCC)C(O)C2O)c(=O)n1` (centres undefined), for which the GI50 in the assay with SK-OV-3 is > 100 µM (inactive); in the assay on MOLT-4 it was > 100 µM (inactive); in the assay with SR, > 100 µM (inactive); in the assay with TK-10 it was > 100 µM (inactive); in the assay on LOX IMVI, 82 µM (inactive); with OVCAR-4, > 100 µM (inactive). Also, the GI50 in the assay on HCC 2998, in the assay with RXF 393, with MCF7, in the assay with T47D, in the assay with EKVX and in the assay with U-251 was > 100 µM (inactive) throughout. The GI50 in the assay on MDA-MB-435, in the assay with K562, in the assay with SK-MEL-2, in the assay on UACC-62, in the assay with A498 and with HCT-116 was > 100 µM (inactive) in each case.

For `CCCCCCCCCCCC[C@H](O)[C@H]1CC[C@H]([C@H](O)CCCC[C@H](O)CCCCC[C@@H](O)CC2=C[C@H](C)OC2=O)O1`, the GI50 was 2.87 µM (inactive) with MOLT-4; 2.82 µM (inactive) with SR; 1.77 µM (inactive) in the assay with TK-10; 1.11 µM (active) in the assay on LOX IMVI; 17.6 µM (inactive) in the assay with OVCAR-4; 17.4 µM (inactive) in the assay on HCC 2998. The GI50 in the assay on RXF 393 is 16.6 µM (inactive); with MCF7, 1.4 µM (inactive); in the assay with T47D, 4.14 µM (inactive); in the assay on NCI-H460, 3.04 µM (inactive); in the assay with EKVX, 1.6 µM (inactive); in the assay with U-251, 13.8 µM (inactive). The GI50 with SK-MEL-5 is 1.75 µM (inactive); with MDA-MB-435, 1.4 µM (inactive); in the assay on K562, 1.23 µM (inactive); with SK-MEL-2, 3.05 µM (inactive); in the assay on UACC-62, 1.19 µM (inactive); in the assay on A498, 4.58 µM (inactive). The GI50 with HCT-116 is 1.76 µM (inactive).

Take `NC(=O)/C=C/NC(=O)/C=N\O`: the GI50 in the assay on SK-OV-3, in the assay with MOLT-4, in the assay with SR, with LOX IMVI, in the assay on OVCAR-4 and with HCC 2998 was > 100 µM (inactive) each time. Moreover, the GI50 in the assay with RXF 393, with MCF7, with T47D, with NCI-H460, in the assay on EKVX and in the assay with U-251 was > 100 µM (inactive) throughout. For the same compound, the GI50 with SK-MEL-5, with MDA-MB-435, in the assay on K562, in the assay on UACC-62, in the assay with A498 and with HCT-116 was > 100 µM (inactive) throughout.

For `CCN(CC)CCC(=O)c1ccc(Oc2ccc(Cl)cc2)cc1`, the GI50 was 20.4 µM (inactive) with MOLT-4; 20.1 µM (inactive) in the assay with SR; 18.3 µM (inactive) in the assay with TK-10; 14.6 µM (inactive) in the assay with LOX IMVI; 15.8 µM (inactive) with OVCAR-4; 18.8 µM (inactive) with HCC 2998. Besides, the GI50 is 22.3 µM (inactive) in the assay on RXF 393; 17.7 µM (inactive) with MCF7; 20.7 µM (inactive) in the assay on T47D; 14.7 µM (inactive) in the assay on NCI-H460; 19.5 µM (inactive) in the assay on EKVX; 16.9 µM (inactive) in the assay on U-251. Also, the GI50 in the assay on SK-MEL-5 was 17.5 µM (inactive); in the assay on MDA-MB-435 it was 18.1 µM (inactive); in the assay on K562, 31.8 µM (inactive); in the assay on SK-MEL-2, 14.5 µM (inactive); in the assay on UACC-62, 18.6 µM (inactive); with A498, 16.1 µM (inactive). In addition, the GI50 with HCT-116 was 17.6 µM (inactive).

Consider `COC(=O)C[C@H]1[C@]2(C)C3=C(C)[C@H](c4ccoc4)CC3O[C@@H]2[C@@H]2OC(=O)[C@]3(C)CCC(=O)[C@@]1(C)[C@@H]23` (some centres undefined), for which the GI50 with SK-OV-3 is > 100 µM (inactive); in the assay with MOLT-4 it was 20 µM (inactive); in the assay with SR it was 19.6 µM (inactive); in the assay on LOX IMVI, 40.1 µM (inactive); with OVCAR-4, 41.3 µM (inactive); in the assay with RXF 393 it was 53.5 µM (inactive). In addition, the GI50 was 31.4 µM (inactive) in the assay with MCF7; > 100 µM (inactive) with T47D; > 100 µM (inactive) with NCI-H460; 60.8 µM (inactive) in the assay with U-251; 56.6 µM (inactive) in the assay on SK-MEL-5; 37.2 µM (inactive) in the assay on MDA-MB-435. The GI50 in the assay on K562 was 35.2 µM (inactive); in the assay on SK-MEL-2 it was > 100 µM (inactive); with UACC-62, 49.2 µM (inactive); with A498, > 100 µM (inactive); in the assay on HCT-116, 35.4 µM (inactive).

Consider `C=C1C/C(=C/C)C(=O)O[C@@H]2CCN3CC=C(COC(=O)[C@]1(C)O)[C@H]23` [SENECIPHYLLINE], for which the GI50 with SK-OV-3, with SR, in the assay with TK-10, in the assay on LOX IMVI, in the assay on OVCAR-4 and with HCC 2998 was > 100 µM (inactive) each time. The GI50 in the assay with MCF7 was > 100 µM (inactive); in the assay with T47D it was > 100 µM (inactive); in the assay on NCI-H460 it was 84.9 µM (inactive); with EKVX, > 100 µM (inactive); in the assay with U-251, > 100 µM (inactive); with SK-MEL-5 it was > 100 µM (inactive). Also, the GI50 in the assay with MDA-MB-435, with K562, in the assay with SK-MEL-2, in the assay on UACC-62, with A498 and with HCT-116 was > 100 µM (inactive) throughout.

Take `CSc1cccc(NC(=O)OC2CCCCCCCCCCC2)c1`: the GI50 with SK-OV-3 was 16.6 µM (inactive); in the assay on MOLT-4, 23.5 µM (inactive); with SR, 26.9 µM (inactive); with TK-10, 26.9 µM (inactive); in the assay with LOX IMVI, 18 µM (inactive); in the assay with OVCAR-4, 10.4 µM (inactive). Moreover, the GI50 is 18.8 µM (inactive) in the assay on RXF 393; 20.6 µM (inactive) with MCF7; 25.4 µM (inactive) in the assay on T47D; 16.4 µM (inactive) in the assay on NCI-H460; 19.1 µM (inactive) in the assay with EKVX; 18.8 µM (inactive) in the assay on U-251. For the same compound, the GI50 in the assay on SK-MEL-5 is 15.4 µM (inactive); with MDA-MB-435, 15.7 µM (inactive); with K562 it was 16.4 µM (inactive); with SK-MEL-2 it was 18.4 µM (inactive); in the assay on UACC-62 it was 18.1 µM (inactive); in the assay on A498, 21.7 µM (inactive). In the assay with HCT-116, the GI50 is 15.1 µM (inactive).

As for `COc1cc2nc(-c3cccs3)nc(Nc3ccccc3C(=O)NN)c2cc1OC`, the GI50 with SK-OV-3 is > 100 µM (inactive); in the assay on MOLT-4, > 100 µM (inactive); in the assay with SR, 23.6 µM (inactive); with TK-10 it was > 100 µM (inactive); in the assay with LOX IMVI, 51.5 µM (inactive); in the assay with OVCAR-4, 27.8 µM (inactive). Further, the GI50 with HCC 2998 is > 100 µM (inactive); in the assay with MCF7, > 100 µM (inactive); in the assay on T47D it was > 100 µM (inactive); in the assay on NCI-H460, > 100 µM (inactive); with EKVX, > 100 µM (inactive); in the assay on U-251, 96.2 µM (inactive). Besides, the GI50 in the assay with SK-MEL-5 is > 100 µM (inactive); in the assay with MDA-MB-435, 95.7 µM (inactive); in the assay on K562 it was 97.5 µM (inactive); with SK-MEL-2, > 100 µM (inactive); in the assay on UACC-62, > 100 µM (inactive); with A498, > 100 µM (inactive). Further, in the assay with HCT-116, the GI50 was > 100 µM (inactive).

Regarding `Cc1c[nH]c2c(O)cc3c(c12)[C@H](CCl)CN3C(=O)c1cc2cc(NC(=O)Nc3ccc4[nH]c(C(=O)N5C[C@@H](CCl)c6c5cc(O)c5[nH]cc(C)c65)cc4c3)ccc2[nH]1` [BIZELESIN], the GI50 with SK-OV-3 was 0.141 µM (active); in the assay with MOLT-4 it was 0.418 µM (active); in the assay on SR it was 0.0832 µM (active); in the assay on LOX IMVI it was 3.6 µM (inactive); in the assay on OVCAR-4 it was 17.3 µM (inactive); in the assay with HCC 2998 it was 0.00109 µM (active). In addition, the GI50 in the assay on RXF 393 is > 100 µM (inactive); in the assay on MCF7, 0.578 µM (active); in the assay on T47D it was < 0.001 µM (active); with NCI-H460, < 0.001 µM (active); in the assay on EKVX it was > 100 µM (inactive); in the assay with SK-MEL-5, 12.5 µM (inactive). Further, the GI50 in the assay with MDA-MB-435 is 0.113 µM (active); with K562, 23.9 µM (inactive); in the assay with SK-MEL-2 it was 34.4 µM (inactive); with UACC-62, 0.701 µM (active); in the assay on A498, 0.904 µM (active); with HCT-116, 2.6 µM (inactive).

The record behind these values is ChEMBL document CHEMBL1201862, “PubChem BioAssay data set” (2004).
